Experimental data reported in US10092548B2, “Pharmaceutical compositions for preventing or treating angiogenic diseases comprising inhibitors of NUP153 gene expression or NUP153 activity as active ingredient” (INDUSTRY-ACADEMIC COOPERATION FOUNDATION, YONSEI UNIVERSITY, priority 2013, dated 2018).

How the values were obtained:
[1] = system: intersegmental vessel (ISV) angiogenesis of zebrafish embryos; experiment: ISV angiogenesis in fli1a:EGFP transgenic zebrafish embryos; format: in vivo; conditions: 30 hpf; for number of complete intersegmental vessels (ISVs) and angiogenic sprouts: OMe-Syn 2.5 and 5 μM, 5′-MO 8 ng, sp-MO 12 ng
Experimental: Zebrafish were maintained on 14 hours light/dark cycle at 28° C. All experiments involving zebrafish were performed according to the National Institute of Health guidelines. Embryos were collected and raised in Ringer's solution according to standard protocol (Westerfield, 1995). Zebrafish were injected in Ringer's solution at the one-cell stage with morpholino oligonucleotides (MO). MO was obtained from Gene Tools (Philomath, Oreg.) with the following sequence to block 5′ translation of NUP153: 5′-[…]-3′ (SEQ ID NO:2) and splicing of NUP153: 5′-[…]-3′ (SEQ ID NO:3), respectively. DMSO and OMe-Syn stock solution (10 mM in DMSO) were dissolved in ringer's solution to appropriate concentrations. […] Embryos were added to the solutions at one cell stage. Tricaine supplied in Ringer's solution (0.6%, w/v) was used to anesthetize the embryos for imaging. Microscopy images of zebrafish were taken with Fluoview FV1000, Olympus.
The present inventors previously reported that OMe-Syn, an anti-angiogenic small molecule, inhibited VEGF-induced angiogenesis in vitro and in vivo (Kim et al., Biochem. Biophys. Res. Commun 399, 20-23 (2010)). The anti-angiogenic activity of OMe-Syn was further investigated using fli1a:EGFP transgenic zebrafish, a well-established model organism for studying angiogenesis through visualization of blood vessel development.
The present inventors further examined the function of NUP153 in vivo in intersegmental vessel (ISV) angiogenesis of zebrafish embryos using a morpholino oligonucleotide (MO) specific to NUP153. NUP153-specific MOs that block the splicing (n=31) or translation (n=28) of NUP153 were injected into fli1a:EGFP transgenic embryos at the one-cell stage. The blocking of NUP153 splicing was monitored by reverse transcription-polymerase chain reaction (RT-PCR) (FIG. 6A).

[2] = target: T1, endogenous NUP153 (Homo sapiens, UniProt P49790); experiment: Pull-down assay with HUVEC lysates, streptavidin agarose beads, western blotting; format: binding; conditions: bead fraction
T1 construct: endogenous in cells; host or cells: HUVEC
T1 sequence (P49790 1-1475): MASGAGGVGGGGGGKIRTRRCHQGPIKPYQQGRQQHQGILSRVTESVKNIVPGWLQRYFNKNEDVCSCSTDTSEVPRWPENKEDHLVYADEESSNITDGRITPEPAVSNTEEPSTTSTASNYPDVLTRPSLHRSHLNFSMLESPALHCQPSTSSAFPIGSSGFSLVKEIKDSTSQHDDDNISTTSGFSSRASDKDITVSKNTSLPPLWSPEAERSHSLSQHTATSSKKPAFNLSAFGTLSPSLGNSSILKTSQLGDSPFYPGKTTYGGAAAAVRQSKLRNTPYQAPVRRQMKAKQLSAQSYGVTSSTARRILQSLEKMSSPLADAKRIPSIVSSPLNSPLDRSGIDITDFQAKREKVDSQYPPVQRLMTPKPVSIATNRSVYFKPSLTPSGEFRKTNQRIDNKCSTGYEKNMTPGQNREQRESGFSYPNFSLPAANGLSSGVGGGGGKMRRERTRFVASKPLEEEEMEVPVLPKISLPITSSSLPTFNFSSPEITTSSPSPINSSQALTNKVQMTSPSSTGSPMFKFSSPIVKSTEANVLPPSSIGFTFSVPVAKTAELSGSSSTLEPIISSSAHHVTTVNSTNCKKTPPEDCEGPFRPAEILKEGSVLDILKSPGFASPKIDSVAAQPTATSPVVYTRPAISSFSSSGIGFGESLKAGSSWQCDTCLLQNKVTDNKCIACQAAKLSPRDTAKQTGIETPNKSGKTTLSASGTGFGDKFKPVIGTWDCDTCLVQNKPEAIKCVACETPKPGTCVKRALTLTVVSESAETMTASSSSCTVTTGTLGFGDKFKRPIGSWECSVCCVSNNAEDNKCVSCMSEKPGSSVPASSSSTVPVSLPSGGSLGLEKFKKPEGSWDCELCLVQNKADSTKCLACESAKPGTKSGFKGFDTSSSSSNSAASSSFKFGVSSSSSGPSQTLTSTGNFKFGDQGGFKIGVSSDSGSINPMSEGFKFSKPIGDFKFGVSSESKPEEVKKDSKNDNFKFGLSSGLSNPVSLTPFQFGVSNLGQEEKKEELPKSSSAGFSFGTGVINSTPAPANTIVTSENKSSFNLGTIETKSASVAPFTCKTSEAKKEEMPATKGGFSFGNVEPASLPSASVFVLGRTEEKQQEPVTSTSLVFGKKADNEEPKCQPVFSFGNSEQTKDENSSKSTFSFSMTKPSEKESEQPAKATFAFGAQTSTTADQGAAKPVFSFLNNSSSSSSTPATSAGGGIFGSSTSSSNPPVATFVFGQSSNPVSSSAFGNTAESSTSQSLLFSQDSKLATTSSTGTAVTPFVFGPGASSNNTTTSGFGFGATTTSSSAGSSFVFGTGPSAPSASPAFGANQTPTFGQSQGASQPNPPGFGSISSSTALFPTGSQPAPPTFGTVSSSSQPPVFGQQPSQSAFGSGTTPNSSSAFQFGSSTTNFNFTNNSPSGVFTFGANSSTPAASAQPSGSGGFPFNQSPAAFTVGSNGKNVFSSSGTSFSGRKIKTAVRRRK
Experimental: The cell lysates were separated by 10% SDS-PAGE and were then transferred to PVDF membranes (Millipore, Bedford, Mass.) using standard electroblotting procedures. The blots were then blocked and immunolabeled overnight at 4° C. with anti-NUP153 (Abcam, Cambridge, Mass.), anti-VEGF (Abcam, Cambridge, Mass.), anti-bFGF (Abcam, Cambridge, Mass.), anti-HGF (Abcam, Cambridge, Mass.) and anti-tubulin (Upstate Biotechnology Inc. Lake Placid, N.Y.) primary antibodies. Immunolabeling was detected by an ECL kit (Amersham Biosciences Inc., Buckinghamshire, UK) according to the manufacturer's instructions.
The present inventors further validated OMe-Syn binding to endogenous NUP153 using pull-down assays with HUVEC cell lysate as the proteome source. NUP153 was pulled down from lysates of HUVECs with biotin- and biotinyl-OMe-Syn-conjugated streptavidin agarose beads. […] Collectively, NUP153 was identified as a binding protein of OMe-Syn.

Row | Compound | viability / toxicity of embryos [1] | number of complete intersegmental vessels (ISVs) and angiogenic sprouts [1] | amount of NUP153 bound to conjugated beads [2] [%]
1 | 5′-MO: morpholino oligonucleotide, translational blocker of NUP153: 5′-TTTTCCCTCCTCCTGTCGCCGCCAT-3′ (all phosphorodiamidate morpholino (PMO)) | no toxicity | decrease in the number of complete ISVs and angiogenic sprouts | –
2 | O=C(O)CCCC[C@@H]1SC[C@@H]2NC(=O)N[C@@H]21 [biotin] | – | – | 32
3 | sp-MO: morpholino oligonucleotide, splicing blocker of NUP153: 5′-ACATTGAGACATGTTCAGACCTGAT-3′ (all phosphorodiamidate morpholino (PMO)) | no toxicity | decrease in the number of complete ISVs and angiogenic sprouts | –
